What was measured:
[1] = test system: knee joint; assay: Injection of resiniferatoxin solution into the intracapsular space of a patient's knee joint; type: in vivo, human
Procedure: (§1) Under the optionally simultaneous (image converter, CT, sonography, MRI, etc.) or subsequent (x-ray, CT, MRI, sonography, arthroscopy, etc.) imaging control, the therapist brought an injection needle into the joint space of a knee joint and injected 9 mL of a 500 nmolar solution (approximately 0.003 mg) of resiniferatoxin into the intracapsular space. The patient noted a clear alleviation of their symptoms already 14 hours after the intervention. This alleviation lasted for more than 6 months.
Under the optionally simultaneous (image converter, CT, sonography, MRI, arthroscopy, etc.) or subsequent (x-ray, CT, MRI, sonography, etc.) imaging control, the therapist brought an injection needle into the joint space of a knee joint and injected […] of a 500 nmolar solution (approximately 0.006 mg) of resiniferatoxin into the intracapsular space. The patient noted a clear alleviation of their symptoms already a few days after the intervention. This alleviation lasted for more than 6 months.
The injected solution corresponded to that of Example 1 with the difference that, for the imaging method to be used, 5 mL of a visible contrasting agent (Iopamidol) was added at a concentration of 50 g/100 mL. After the injection, this contrasting agent spread out within the joint capsule and documented the position of the injection needle and the distribution of the RTX within the joint capsule. The injected solution, containing RTX, was drawn off again directly after the injection. It could, however, also be drawn off after a defined, substance-dependent time of action or not be drawn off at all. The patient noted a clear alleviation of their symptoms already 15 hours after the intervention. This alleviation lasted for more than 8 months.
as §1, with “nM (approx.” for “nmolar solution (approximately”, “mg) solution” for “mg)”, “resiniferatoxin, buffered with a buffer to a pH of 8.5, together physiological salt solution” for “resiniferatoxin”, “a few minutes” for “14 hours”
Under the optionally simultaneous (image converter, CT, sonography, MRI, etc.) or subsequent (x-ray, CT, MRI, sonography, arthroscopy, etc.) imaging control, the therapist, brought an injection needle into the joint space of a knee joint and injected 9 mL of a 500 nmolar solution (approximately 0.003 mg) of resiniferatoxin, buffered to a pH of 6.5 with a buffer, together with a physiological salt solution into the intracapsular space.
Under the optionally simultaneous (image converter, CT, sonography, MRI, etc.) or subsequent (x-ray, CT, MRI, sonography, arthroscopy, etc.) imaging control, the therapist, brought an injection needle into the joint space of a knee joint and injected 9 mL of a 500 nmolar solution (approximately 0.003 mg) of resiniferatoxin, in a physiological Ringer solution with 10 mmolar Ca2+ into the intracapsular space.

[2] = test system: affected joint; assay: Continuous infusion of resiniferatoxin solution into the affected joint via infusion catheter; type: in vivo, human; conditions: Example 4: 100 nmolar
Procedure: The therapist placed a thin infusion catheter, similar to an epidural catheter, into the affected joint and, with a perfuser, injected a solution of […] of 100 nmolar of resiniferatoxin into the affected joint at a rate of 1-10 mL/h for 12 hours. Optionally, they also placed a drainage catheter with an optionally defined drainage resistance (such as 20 mm Hg), in order to achieve a liquid turnover. With this method, the therapist achieved a uniform infiltration of the painful joint, without large concentration peaks. Moreover, it was possible to define the period of action better.
The patient noted a clear alleviation of their symptoms already 12 hours after the intervention. This alleviation lasted for more than 1 year.

[3] = test system: postoperative pain; assay: Injection of resiniferatoxin after knee or hip joint prosthesis implantation (postoperative pain); type: in vivo, human
Procedure: After a knee joint prosthesis had been implanted, the therapist injected 50 mL of a solution of 100 nmolar (approximately 0.001 mg) solution of resiniferatoxin into the joint capsule, which had been closed off once again.
After a hip joint prosthesis had been implanted, the therapist injected 50 mL of a solution of 100 nmolar (approximately 0.001 mg) solution of resiniferatoxin into the periprosthetic region without a capsule.

[4] = test system: painful, septic loosening of a total hip endoprosthesis; assay: Injection into (neo)-capsule about the prosthesis in painful, septic loosening of a total hip endoprosthesis; type: in vivo, human
Procedure: A solution of 5 μmolar (approximately 0.03 mg) solution of resiniferatoxin was injected into the (neo)-capsule about the prosthesis of a patient with a painful, septic loosening of a total hip endoprosthesis. […] Optionally, this treatment may be supported with systemically administered antibiotics (such as 450 mg of Rifampicin, 750 mg of ciproflaxacin).

[5] = test system: shoulder joint; assay: Injection into shoulder joint of patient with painful capsulitis of joints (frozen shoulder); type: in vivo, human; conditions: for joint mobility lost due to capsulitis: with physiotherapy
Procedure: The shoulder joint of a patient with painful capsulitis of joints (frozen shoulder) was injected with 9 mL of a 100 nmolar (approximately 0.001 mg) solution of resiniferatoxin in physiological salt solution. Once again, it was possible to check the distribution of the substance by adding the appropriate contrasting agent and employing an imaging procedure. Optionally, a substance with antiphlogistic activity was admixed. […] For this application, only a temporary analgesia (2-3 weeks) is desired. For this reason, the concentration of the neurotoxic substances, if anything, was kept low.
The shoulder joint of a patient with painful capsulitis of joints (frozen shoulder) was injected with 3 mL of a 500 nmolar (approximately 0.001 mg) solution of resiniferatoxin in physiological salt solution.

[6] = test system: chronically inflamed bursa (Bursa trochenterica); assay: Injection into chronically inflamed bursa (Bursa trochenterica); type: in vivo, human
Procedure: The therapist injected 5 mL of a solution of a 500 nmolar (approximately 0.001 mg) solution of resiniferatoxin, buffered to a pH of 8.5 with a buffer, together with physiological salt solution as solvent, into a chronically inflamed bursa (Bursa trochenterica) over the greater trochanter of the hip. Within 60 minutes, the symptoms of the patient disappeared and the patient remained asymptomatic at this place for several years.
The therapist injected 50 mL of a 100 nmolar (approximately 0.001 mg) solution of resiniferatoxin in glycerin or Ringer lactate as solvent. Within 60 minutes, the symptoms of the patient disappeared and the patient remained asymptomatic at this place for several years.

[7] = Local application of RTX without local anesthetic, compared with capsaicin or with combination with local anesthetic; type: in vivo
Text: Moreover, it is free of inflammation and pain. In particular, this preparation may be used without using ethanol, which otherwise is always necessary for the known intravesical administration. It is a further surprising advantage of the use without local or general anesthesia that, due to the injection, a warm, pleasant sensation sets in, which decisively supports combating pain. In this way, an amelioration of pain is achieved, which surpasses that of a combination with local anesthetics. This may also be explained by the antagonistic effect, which the local anesthetics have for vanilloid receptor agonists since they partially block the desired neurotoxic effect of vanilloids.

[8] = Example 1: 9 mL of 500 nmolar solution, knee joint, intracapsular
[9] = Example 2: 20 mL of 500 nmolar solution, knee joint, intracapsular
[10] = Example 3: solution of Example 1 plus 5 mL Iopamidol 50 g/100 mL, drawn off directly after injection
[11] = Example 8: 9 mL of 500 nM solution buffered to pH 8.5, physiological salt solution, knee joint
[12] = Example 9: 9 mL of 500 nmolar solution buffered to pH 6.5, physiological salt solution, knee joint
[13] = Example 10: 9 mL of 500 nmolar solution in Ringer solution with 10 mmolar Ca2+, knee joint
[14] = 1-10 mL/h for 12 hours via catheter
[15] = Example 7: 5 μmolar solution into (neo)-capsule about the prosthesis
[16] = Example 11: 9 mL of 100 nmolar solution in physiological salt solution, shoulder joint
[17] = Example 12: 3 mL of 500 nmolar solution in physiological salt solution, shoulder joint
[18] = Example 13: 5 mL of 500 nmolar solution buffered to pH 8.5, physiological salt solution, bursa over greater trochanter
[19] = Example 14: 50 mL of 100 nmolar solution in glycerin or Ringer lactate

Compound: C=C(C)[C@]12C[C@@H](C)[C@@]34O[C@](Cc5ccccc5)(O[C@@H]1[C@@H]3C=C(COC(=O)Cc1ccc(O)c(OC)c1)C[C@]1(O)C(=O)C(C)=C[C@@H]41)O2 [resiniferatoxin]
- duration of alleviation [1, 8]: more than 6 months
- time to clear alleviation of symptoms after the intervention [1, 8]: 14 h
- duration of alleviation [1, 9]: more than 6 months
- time to clear alleviation of symptoms after the intervention [1, 9]: a few days
- duration of alleviation [1, 10]: more than 8 months
- time to clear alleviation of symptoms after the intervention [1, 10]: 15 h
- duration of alleviation [1, 11]: more than 6 months
- time to clear alleviation of symptoms after the intervention [1, 11]: a few minutes
- duration of alleviation [1, 12]: more than 6 months
- time to clear alleviation of symptoms after the intervention [1, 12]: Within minutes
- duration of alleviation [1, 13]: more than 6 months
- time to clear alleviation of symptoms after the intervention [1, 13]: Within minutes
- duration of alleviation [2, 14]: more than 1 year
- time to clear alleviation of symptoms after the intervention [2, 14]: 12 h
- inflamed tissue at subsequent arthroscopies ([2]; 1-10 mL/h for 12 hours, arthroscopies after 1, 2, 7, 14 and 28 days): only a very little inflamed tissue was present
- postoperative pain ([3]; Example 5: 50 mL of 100 nmolar solution into closed joint capsule after knee joint prosthesis): possible to minimize postoperative pain
- postoperative pain ([3]; Example 6: 50 mL of 100 nmolar solution into periprosthetic region without capsule after hip joint prosthesis): possible to minimize postoperative pain
- bone substance about the prosthesis (radiological) ([4]; Example 7: 5 μmolar solution): the bone substance had consolidated about the prosthesis
- duration of alleviation of pain [4, 15]: more than one year
- time to alleviation of pain [4, 15]: 6 to 12 h
- infection about the prosthesis ([4]; Example 7: 5 μmolar solution, diffusion of RTX along the shaft and about the socket): brought very much under control
- pain after injection [5, 16]: alleviated permanently
- time to alleviation of pain after the injection [5, 16]: A few minutes
- joint mobility lost due to capsulitis ([5]; Example 11: 9 mL of 100 nmolar solution): able to regain the mobility
- pain after injection [5, 17]: abated permanently
- time to abatement of pain after the injection [5, 17]: A few minutes
- joint mobility lost due to capsulitis ([5]; Example 12: 3 mL of 500 nmolar solution): regained the mobility lost due to capsulitis
- duration patient remained asymptomatic [6, 18]: several years
- time to disappearance of symptoms [6, 18]: ≤ 60 min
- duration patient remained asymptomatic [6, 19]: several years
- time to disappearance of symptoms [6, 19]: ≤ 60 min
- local tolerability (burning, inflammation of tissue) ([7]; applied locally, without a local anesthetic): no burning and also no inflammation of tissue
- effectiveness of RTX by itself versus injection together with a local anesthetic ([7]; local intraarticular injection at a very low concentration): more effective than an injection together with a local anesthetic

From US9044452B2, “Use of resiniferatoxin (RTX) for producing an agent for treating joint pains and method for applying said agent” (MESTEX AG, priority 2004, dated 2015)
